Reference: ChEMBL document CHEMBL1147265, “Lucidenic acids P and Q, methyl lucidenate P, and other triterpenoids from the fungus Ganoderma lucidum and their inhibitory effects on Epstein-Barr virus activation” (J Nat Prod, 2003)

Legend:
[1] = tested on: Raji; assay: Inhibition of 12-O-tetradecanoylphorbol-13-acetate-induced EBV-early antigen activation in human Raji cells assessed as EA induction at 1000 molar ratio relative to 12-O-tetradecanoylphorbol-13-acetate by immunofluorescence technique; type: cell-based; design: scale not given: the % may be the effect or the level left; details: human gammaherpesvirus 4
[2] = tested on: Raji; assay: Inhibition of 12-O-tetradecanoylphorbol-13-acetate-induced EBV-early antigen activation in human Raji cells assessed as EA induction at 500 molar ratio relative to 12-O-tetradecanoylphorbol-13-acetate by immunofluorescence technique; type: cell-based; design: scale not given: the % may be the effect or the level left; details: human gammaherpesvirus 4
[3] = Inhibition of 12-O-tetradecanoylphorbol-13-acetate-induced EBV-early antigen activation in human Raji cells assessed per 32 pmol TPA by immunofluorescence technique; type: cell-based, human gammaherpesvirus 4
[4] = tested on: Raji; assay: Inhibition of 12-O-tetradecanoylphorbol-13-acetate-induced EBV-early antigen activation in human Raji cells assessed as EA induction at 10 molar ratio relative to 12-O-tetradecanoylphorbol-13-acetate by immunofluorescence technique; type: cell-based; design: scale not given: the % may be the effect or the level left; details: human gammaherpesvirus 4
[5] = Cytotoxicity against human Raji cells assessed as cell viability at 1000 molar ratio by trypan blue staining method; type: cell-based; details: read-out: Activity
[6] = tested on: Raji; assay: Inhibition of 12-O-tetradecanoylphorbol-13-acetate-induced EBV-early antigen activation in human Raji cells assessed as EA induction at 100 molar ratio relative to 12-O-tetradecanoylphorbol-13-acetate by immunofluorescence technique; type: cell-based; design: scale not given: the % may be the effect or the level left; details: human gammaherpesvirus 4

Q: For `CC(=O)OC1C[C@H]([C@H](C)CC/C=C(/C)C(=O)O)[C@@]2(C)CC=C3C(=CC[C@H]4C(C)(C)C(=O)CC[C@]34C)[C@]12C` (some centres undefined), which Activity [1] is on record?
A: The Activity was -0%.

Q: And the Activity [2]?
A: The Activity was 26.4%.

Q: And the IC50 [3]?
A: The IC50 was 281 molar ratio.

Q: And the Activity [4]?
A: The Activity was 95.3%.

Q: What about the viability at 1000 molar ratio [5] of the same compound?
A: The viability at 1000 molar ratio was 70%.

Q: And the Activity [6]?
A: Its Activity is 74.6%.

Q: Which results are given for `CC1=C(/C=C/C(C)=C/C=C/C(C)=C/C=C/C=C(C)/C=C/C=C(C)/C=C/C2=C(C)CCCC2(C)C)C(C)(C)CCC1` [BETA CAROTENE]?
A: Activity [1]: 8.6%; IC50 [3]: 400 molar ratio; Activity [4]: 100%

Q: With `C[C@H](CC(=O)C[C@@H](C)[C@H]1CC(=O)[C@@]2(C)C3=C(C(=O)C[C@]12C)[C@@]1(C)CCC(=O)C(C)(C)[C@@H]1CC3=O)C(=O)O` [GANODERIC ACID E] as the compound, how does the Activity [1] read?
A: The Activity was -0%.

Q: What about the Activity [2] of the same compound?
A: The Activity was 28.3%.

Q: What about the IC50 [3] of the same compound?
A: The IC50 was 281 molar ratio.

Q: And the Activity [4]?
A: Its Activity is 97.4%.

Q: What about the viability at 1000 molar ratio [5] of the same compound?
A: Its viability at 1000 molar ratio is 70%.

Q: What about the Activity [6] of the same compound?
A: The Activity was 79%.

Q: Which Activity [1] does the source give for `CC(=O)O[C@@H]1C(=O)C2=C(C(=O)C[C@H]3C(C)(C)C(=O)CC[C@]23C)[C@]2(C)C(=O)C[C@H]([C@H](C)CC(=O)CC(C)C(=O)O)[C@@]12C` (some centres undefined) [GANODERIC ACID F] here?
A: The Activity was 3.6%.

Q: And the Activity [2]?
A: The Activity was 28.5%.

Q: What about the IC50 [3] of the same compound?
A: The IC50 was 293 molar ratio.

Q: And the Activity [4]?
A: Its Activity is 98.7%.

Q: What about the viability at 1000 molar ratio [5] of the same compound?
A: Its viability at 1000 molar ratio is 70%.

Q: What about the Activity [6] of the same compound?
A: The Activity was 77.1%.

Q: With `C[C@H](CCC(=O)O)[C@H]1CC(=O)[C@@]2(C)C3=C(C(=O)C[C@]12C)[C@@]1(C)CCC(=O)C(C)(C)[C@@H]1C[C@@H]3O` [LUCIDENIC ACID A] as the compound, how does the Activity [1] read?
A: Its Activity is -0%.

Q: And the Activity [2]?
A: Its Activity is 22.7%.

Q: What about the IC50 [3] of the same compound?
A: The IC50 was 280 molar ratio.

Q: What about the Activity [4] of the same compound?
A: Its Activity is 96.1%.

Q: What about the viability at 1000 molar ratio [5] of the same compound?
A: The viability at 1000 molar ratio was 70%.

Q: And the Activity [6]?
A: The Activity was 73%.

Q: What does the source list for `C[C@H](CCC(=O)O)[C@H]1CC(=O)[C@@]2(C)C3=C(C(=O)[C@@H](O)[C@]12C)[C@@]1(C)CC[C@H](O)C(C)(C)[C@@H]1C[C@@H]3O` [LUCIDENIC ACID C]?
A: Activity [1]: -0%; Activity [2]: 24%; IC50 [3]: 284 molar ratio; Activity [4]: 93.1%; viability at 1000 molar ratio [5]: 70%; Activity [6]: 72.6%

Q: With `CC(=O)O[C@@H]1C(=O)C2=C(C(=O)C[C@H]3C(C)(C)C(=O)CC[C@]23C)[C@]2(C)C(=O)C[C@H]([C@H](C)CCC(=O)O)[C@@]12C` [LUCIDENIC ACID D2] as the compound, how does the Activity [1] read?
A: The Activity was 2%.

Q: What about the Activity [2] of the same compound?
A: The Activity was 26.1%.

Q: And the IC50 [3]?
A: The IC50 was 287 molar ratio.

Q: What about the Activity [4] of the same compound?
A: The Activity was 96.1%.

Q: What about the viability at 1000 molar ratio [5] of the same compound?
A: Its viability at 1000 molar ratio is 70%.

Q: What about the Activity [6] of the same compound?
A: The Activity was 73.8%.

Q: Which Activity [1] does the source give for `CC(=O)O[C@@H]1C(=O)C2=C([C@@H](O)C[C@H]3C(C)(C)[C@@H](O)CC[C@]23C)[C@]2(C)C(=O)C[C@H]([C@H](C)CCC(=O)O)[C@@]12C` [LUCIDENIC ACID P] here?
A: The Activity was -0%.

Q: And the Activity [2]?
A: The Activity was 27.5%.

Q: What about the IC50 [3] of the same compound?
A: The IC50 was 286 molar ratio.

Q: What about the Activity [4] of the same compound?
A: The Activity was 96.6%.

Q: And the viability at 1000 molar ratio [5]?
A: Its viability at 1000 molar ratio is 70%.

Q: What about the Activity [6] of the same compound?
A: Its Activity is 74.2%.

Q: For `CC(=O)O[C@@H]1C(=O)C2=C(C(=O)C[C@H]3C(C)(C)[C@@H](O)CC[C@]23C)[C@]2(C)C(=O)C[C@H]([C@H](C)CCC(=O)O)[C@@]12C` [LUDICENIC ACID E2], which Activity [1] is on record?
A: The Activity was -0%.

Q: What about the Activity [2] of the same compound?
A: Its Activity is 23.5%.

Q: What about the IC50 [3] of the same compound?
A: The IC50 was 280 molar ratio.

Q: And the Activity [4]?
A: Its Activity is 94%.

Q: What about the viability at 1000 molar ratio [5] of the same compound?
A: The viability at 1000 molar ratio was 70%.

Q: And the Activity [6]?
A: The Activity was 73.1%.

Q: With `COC(=O)C(C)CC(=O)C[C@@H](C)[C@H]1CC(=O)[C@@]2(C)C3=C(C(=O)[C@@H](OC(C)=O)[C@]12C)[C@@]1(C)CCC(=O)C(C)(C)[C@@H]1CC3=O` (some centres undefined) [METHYL GANODERATE F] as the compound, how does the Activity [1] read?
A: The Activity was 2.3%.

Q: What about the Activity [2] of the same compound?
A: The Activity was 26.4%.

Q: What about the IC50 [3] of the same compound?
A: Its IC50 is 289 molar ratio.

Q: What about the Activity [4] of the same compound?
A: Its Activity is 100%.

Q: And the viability at 1000 molar ratio [5]?
A: Its viability at 1000 molar ratio is 70%.

Q: And the Activity [6]?
A: Its Activity is 75.3%.

Q: Which results are given for `COC(=O)CC[C@@H](C)[C@H]1CC(=O)[C@@]2(C)C3=C(C(=O)C[C@]12C)[C@@]1(C)CCC(=O)C(C)(C)[C@@H]1C[C@@H]3O` [METHYL LUCIDENATE A]?
A: Activity [1]: -0%; Activity [2]: 24.9%; IC50 [3]: 287 molar ratio; Activity [4]: 95%; viability at 1000 molar ratio [5]: 70%; Activity [6]: 75.1%

Q: What does the source list for `COC(=O)CC[C@@H](C)[C@H]1CC(=O)[C@@]2(C)C3=C(C(=O)[C@@H](OC(C)=O)[C@]12C)[C@@]1(C)CCC(=O)C(C)(C)[C@@H]1CC3=O` [METHYL LUCIDENATE D2]?
A: Activity [1]: 2.2%; Activity [2]: 29.3%; IC50 [3]: 290 molar ratio; Activity [4]: 98%; viability at 1000 molar ratio [5]: 70%; Activity [6]: 76.9%

Q: For `COC(=O)CC[C@@H](C)[C@H]1CC(=O)[C@@]2(C)C3=C(C(=O)[C@@H](OC(C)=O)[C@]12C)[C@@]1(C)CC[C@H](O)C(C)(C)[C@@H]1CC3=O` [METHYL LUCIDENATE E2], which Activity [1] is on record?
A: Its Activity is 1.2%.

Q: And the Activity [2]?
A: Its Activity is 27.9%.

Q: And the IC50 [3]?
A: The IC50 was 288 molar ratio.

Q: And the Activity [4]?
A: Its Activity is 95.4%.

Q: What about the viability at 1000 molar ratio [5] of the same compound?
A: Its viability at 1000 molar ratio is 70%.

Q: What about the Activity [6] of the same compound?
A: Its Activity is 76%.

Q: Which Activity [1] does the source give for `COC(=O)CC[C@@H](C)[C@H]1CC(=O)[C@@]2(C)C3=C(C(=O)C[C@]12C)[C@@]1(C)CCC(=O)C(C)(C)[C@@H]1CC3=O` [METHYL LUCIDENATE F] here?
A: The Activity was 2.1%.

Q: And the Activity [2]?
A: Its Activity is 26.8%.

Q: What about the IC50 [3] of the same compound?
A: Its IC50 is 285 molar ratio.

Q: And the Activity [4]?
A: Its Activity is 98.3%.

Q: And the viability at 1000 molar ratio [5]?
A: Its viability at 1000 molar ratio is 70%.

Q: And the Activity [6]?
A: Its Activity is 75.4%.

Q: With `COC(=O)CC[C@@H](C)[C@H]1CC(=O)[C@@]2(C)C3=C(C(=O)[C@@H](O)[C@]12C)[C@@]1(C)CC[C@H](O)C(C)(C)[C@@H]1CC3=O` [METHYL LUCIDENATE L] as the compound, how does the Activity [1] read?
A: The Activity was -0%.

Q: And the Activity [2]?
A: The Activity was 21.7%.

Q: And the IC50 [3]?
A: Its IC50 is 275 molar ratio.

Q: And the Activity [4]?
A: Its Activity is 92.6%.

Q: And the viability at 1000 molar ratio [5]?
A: Its viability at 1000 molar ratio is 70%.

Q: And the Activity [6]?
A: Its Activity is 71.9%.

Q: Which results are given for `COC(=O)CC[C@@H](C)[C@H]1CC(=O)[C@@]2(C)C3=C(C(=O)[C@@H](OC(C)=O)[C@]12C)[C@@]1(C)CC[C@H](O)C(C)(C)[C@@H]1C[C@@H]3O` [METHYL LUCIDENATE P]?
A: Activity [1]: 2.3%; Activity [2]: 28.9%; IC50 [3]: 293 molar ratio; Activity [4]: 97.6%; viability at 1000 molar ratio [5]: 70%; Activity [6]: 77.4%

Q: Which results are given for `COC(=O)CC[C@@H](C)[C@H]1C[C@H](O)[C@@]2(C)C3=C(C(=O)C[C@]12C)[C@@]1(C)CCC(=O)C(C)(C)[C@@H]1C[C@@H]3O` [METHYL LUCIDENATE Q]?
A: Activity [1]: -0%; Activity [2]: 24.6%; IC50 [3]: 283 molar ratio; Activity [4]: 95.4%; viability at 1000 molar ratio [5]: 70%; Activity [6]: 73.7%
